Series [1] relates to dextran sulfate sodium (DSS)-induced colitis in mice. Briefly: mouse dextran sulfate sodium (DSS) model of acute ulcerative colitis. For Colon Content Score (0-3): key: 0=normal, no blood observed; 1=semi-solid stool, may be slightly blood tinged; 2=semi-solid to fluid stool with definite evidence of blood; 3=bloody fluid or no content, (include animals with no observable distal content in this category). It counts as in vivo, mice (Swiss Webster). The conditions noted are these: for restoration of colon length (in words): DSS-induced colitis in mice, oral administration.
Series [2] can be described thus: viscosity (flow property) and taste assessment. It counts as physicochemical. As to the method:
Properties of provided compounds and compositions can be readily tested, including using a number of methods widely known and practiced in the art, in accordance with the present disclosure. For example, viscosity and/or taste of provided compounds can be readily tested. In some embodiments, viscosity was assessed by testing whether a provided compound could readily flow out of a vial or be swirled. In some embodiments, viscosity was assessed by testing whether a provided compound could be administered by direct drinking by a subject. In some embodiments, viscosity can be measured quantitatively or qualitatively by methods and instruments as known and practiced in the art. In some embodiments, taste was assessed by testing whether a provided compound could be administered by direct drinking by a subject.

The mark [3] stands for this setting: CsA (75 mg/kg PO QD) vs. Compound I-1 (2 g/kg PO BID).
The mark [4] stands for this setting: Naïve vs. Compound I-1 (2 g/kg PO BID).
[5] abbreviates: Vehicle vs. Compound I-1 (2 g/kg PO BID).
[6] abbreviates: individual animals, necropsy day 7, 3% DSS, Compound I-1 2 g/kg PO, BID (d0-6).

These results are taken from patent publication US20200369594A1, “COMPOUNDS COMPRISING SHORT-CHAIN FATTY ACID MOIETIES AND COMPOSITIONS AND METHODS THEREOF” (priority 2018, published 2020).

Where “and” joins values, the source holds several entries; their conditions need not be identical. Equal entries are not always repeated.

For `CCCC(=O)OCC(COC(=O)CCC(=O)OCC(COC(=O)CCC)OC(=O)CCC)OC(=O)CCC` (stereo not drawn) [Compound I-1], in series [1] (setting [3]), the “Mean Diff., Tukey's multiple comparisons test (colon length, FIG. 2)” value was determined as 0.65 and the “Significant? Tukey's multiple comparisons test (colon length, FIG. 2)” value was “No”. In series [1], the “restoration of colon length (in words)” value is on record as “significantly restore colon length”. Moreover, the “restoration of colon length (in words)” value in series [1] (listed as compound I-1) is “effectively restored colon length”. Also, in series [1] (setting [4]), the “Mean Diff., Tukey's multiple comparisons test (colon length, FIG. 2)” value was 1.85 and the “Significant? Tukey's multiple comparisons test (colon length, FIG. 2)” value is on record as “Yes”. Moreover, in series [1] (setting [5]), the “Mean Diff., Tukey's multiple comparisons test (colon length, FIG. 2)” value was −1.05 and the “Significant? Tukey's multiple comparisons test (colon length, FIG. 2)” value is “Yes”. For the same compound, in series [1] (setting [6]), the “Colon Content Score (0-3)” value was 1 (8×) and 2 (2×); the “Colon Length” value is 8.00 cm (3×) and 8.25 cm and 6.25 cm (2×) and 8.50 cm and 7.00 cm (2×) and 6.75 cm; the “Colon Weight:Length” value is 0.046 g/cm and 0.039 g/cm and 0.043 g/cm and 0.063 g/cm and 0.042 g/cm and 0.054 g/cm and 0.034 g/cm and 0.047 g/cm and 0.056 g/cm and 0.048 g/cm; the “Colon Wet Wt” value is 0.369 g and 0.320 g and 0.343 g and 0.391 g and 0.332 g (2×) and 0.339 g and 0.291 g and 0.390 g and 0.324 g. In addition, in series [2], the “flow properties and taste for formulation” value was “surprisingly good flow properties and taste”; the “viscosity compared with glycerol” value is “lower viscosity than glycerol”.

`CCCC(=O)OCC(COC(=O)CCC)OC(=O)CCC(=O)OC(COC(=O)CCC)COC(=O)CCC` [Compound I-2]: the “flow properties and taste for formulation” value in series [2] is “surprisingly good flow properties and taste”.
